The test system of series [1] is cracks upon the heel and foot. The series can be described thus: Trial Study Series A: active ingredient studies 1-4.

On to `C[C@]12CCC(=O)C=C1CC[C@@H]1[C@@H]2[C@@H](O)C[C@@]2(C)[C@H]1CC[C@]2(O)C(=O)CO` [Hydrocortisone], for which the effectiveness result in series [1] (hydrocortisone concentration about 0.5% or more) was “most effective concentrations”; in series [1] (hydrocortisone concentration less than about 0.25%) it was “little worthwhile effect”. In series [1] (hydrocortisone concentration greater than about 0.75%), the healing speed result is on record as “promote a faster healing”. Moreover, the “effectiveness (healing time)” value in series [1] (hydrocortisone concentration less than about 0.5%) is on record as “generally less effective, having a lengthened healing time”.
In the case of `O=C(O)c1ccccc1O` [Salicylic acid], in the series with heel cracks (about 10% by weight salicylic acid), the “defoliation versus therapeutic benefit” value is listed as “effects of rapid defoliation begin to exceed the therapeutic benefits”. Moreover, the “effect of raising the salicylic acid component” value with heel cracks (salicylic acid over about 6% or 7% by weight) is reported as “negative results characterized not only by a rapid defoliation of the affected areas”. In addition, the effectiveness result in series [1] (salicylic acid concentration about 4%) is listed as “most effective concentration”; in series [1] (salicylic acid concentration about 5%), “also an effective concentration”. In series [1] (salicylic acid concentration about 8-9%), the “effectiveness / excessive exfoliation” value is listed as “not as effective due to excessive exfoliation”. Also, in series [1] (salicylic acid concentration less than about 4% in the composition), the “effectiveness (exfoliation, healing time)” value is “generally less effective, promoting less exfoliation and having a lengthened healing time”.
With `[O]=[Zn]` [Zinc oxide], the “healing of cracks upon the heel and foot” value in series [1] (zinc oxide concentration about 3%) is recorded as “optimal concentration”. Also, the “healing properties of the composition” value in series [1] (zinc oxide concentration above about 5%) was “does not appear to affect the healing properties”. Also, the healing result in series [1] (zinc oxide concentration less than about 1%) is “some slight decrease in the healing”.

The values above are taken from patent publication US20010005721A1, “Heel crack healing composition and method therefor” (priority 1998, published 2001).
